Laboratory results from patent US6291432A (Japan Energy Corporation, priority 1996, dated 2001).
Values after ≈ are worked out from the molar mass of the structure shown. Like-named read-outs stand apart in the source and are kept apart here.

Experiments:
[1] = target: T1, recombinant HIV-1 protease (Human immunodeficiency virus type 1 group M subtype B, UniProt P04585); assay: HIV protease inhibition activity (enzyme activity inhibition rate); type: biochemical; conditions: 50 nM final concentration of test compound, 60 min at 37° C.; for inhibition at 0.05 µM: read-out: Enzyme activity inhibition rate (%) (addition concentration of 50 nM)
T1 construct: measured using a recombinant HIV-1 protease
Description: The protease activity was measured using a recombinant HIV-1 protease (see Biochemistry, 250 (9)-264 (1990)) and a synthesized peptide substrate. The inhibition rate was calculated by determining a peptide fragment generated by cleavage between Tyr-Pro of the synthesized substrate after the reaction of 60 min at 37° C. using a reversed phase HPLC in the presence of the test compounds in various concentrations (see, for example, Japanese Patent Application Laid-open No. 170722/1993).
Examples of the evaluation results of the HIV protease inhibition activity of the tripeptide compound of the present invention by the above-described method is shown in Table 1. […] The concentration of the test compounds in Table 1 represents the final concentration in the reaction mixture.

[2] = tested on: HIV virus strain HIV-1 IIIB; assay: Anti-HIV activity in HIV infected CEM-SS cells (XTT method); type: cell-based; conditions: Human immunodeficiency virus 1, 144 h, HIV-1 IIIB infected CEM-SS cell, six days at 37° C.
Description: (§1) EP 0751145 A2). On a 96-well micro titre plate, the test compounds were added to the culture medium in various concentrations, then the HIV infected CEM-SS cell was added and incubated for six days at 37° C. using a CO2 incubator. The number of the living cells was then measured by a XTT method. On the other hand, in order to examine the cytotoxicity of the test compounds, the test compounds were added in various concentrations and the HIV virus non-infected cell was incubated under similar conditions. As the reference group, the HIV infected CEM-SS cell was incubated without the addition of the test compounds. Moreover, the HIV virus non-infected cell was incubated without the addition of the test compound as the control group. The anti-virus activity was evaluated in a concentration in which the cytotoxic effect caused by the HIV infected virus in the above HIV infected cell group was inhibited 50 percent (EC50, 50% effective concentration), and the cytotoxicity was evaluated in a concentration in which the cytotoxic effect by the addition of the test compound in the HIV virus non-infected cell group occurred at 50 percent (TC50, 50% cytotoxic concentration) respectively.

[3] = tested on: CEM-SS cell; assay: Cytotoxicity in HIV virus non-infected CEM-SS cells (XTT method); type: cell-based; conditions: six days, highest concentration 1.0 μg/ml
Description: as §1

[4] = Pharmacokinetics test (digestive tract absorption and metabolic characteristics) in rats; type: in vivo; conditions: 10 mg/kg
Description: The metabolic characteristics of the tripeptide compound of the present invention were evaluated using rats for a test animal. As the Control Example, the result of KNI-272 ((R)-N-tert-butyl-3-{(2S,3S)-2-hydroxy-3-[N-(isoquinolin-5-yloxy)acetyl-me thylthio-L-alanyl]amino-4-phenylbutanoyl}-1,3-thiazolidine-4-carboxamide; iQoa-Mta-Apns-Thz-NHtBu) which is a tripeptide derivative known in the art, is also shown. The amount administred was 10 mg/kg. The evaluated administration methods are a method (id) of administering a solution of a fixed amount of the test compound in the duodenum of a test animal, and a method (iv) of administering the solution intravenously. After administration, blood samples were taken from the test animal and concentrations of the residual test compound in the plasma were analyzed. As indices concerning pharmacokinetics, AUC (area under medicine concentration curve in plasma), MRT (mean residence time), t1/2 (λ) (final phase half-life period), and the biological utilization rate of administration in the duodenum F were calculated.

[5] = target: T1, recombinant HIV-1 protease; assay: Evaluation of enzyme inhibition constant Ki; type: biochemical
Description: The synthesized peptide substrate having a sequence of H-Lys-Ala-Arg-Val-Tyr-Phe (4-NO2)-Glu-Ala-Nle-NH2 (SEQ ID NO. 1) was used in this experiment. The enzyme reaction was measured using a reversed phase HPLC by determining the C-terminal peptide fraction produced by cleavage just behind Tyr in the synthesized substrate which is obtained by reacting the following composition for 15 min. at 37° C. and stopping the reaction by the addition of 1N HCl (75 μl).
Composition of reaction mixture
Recombinant HIV-1 protease enzyme solution 10 μl
0.5 mM synthetic substrate aqueous solution 10 μl
DMSO Inhibitor solution 5 μl
0.2 M MES solution 25 μl
(1 M NaCl, 2 mM EDTA-2Na, 2 mM DTT, pH 5.5)
Column: Waters Nova-pak C18 (3.9×75 mm)
Eluent: A; water (0.1% TFA)
B; acetonitrile (0.1% TFA)
Flow rate: 2 ml/min isocratic; 10% B solution
Detection: Fluorescence 305 nm, excitation 275 nm

CC[C@H](NC(=O)COc1cccc(N(C)C)c1)C(=O)N[C@@H](Cc1ccccc1)[C@H](O)C(=O)N1CSC(C)(C)[C@H]1C(=O)NC(C)(C)C [Example 36, (R)-N-tert-butyl-3-{(2S,3S)-2-hydroxy-3-[(S)-2-(3-dimethylaminophenoxyacetyl)aminobutanoyl]amino-4-phenylbutanoyl}-5,5-dimethyl-1,3-thiazolidine-4-car boxamide]
inhibition at 0.05 µM [1]: 95%
EC50 [2]: 0.017 µg/mL (≈ 0.0259 µM)
Cytotoxicity TC50 [3]: > 1.0 µg/mL
AUC ([4]; Id (in the duodenum)): 185 µg·min/mL
F (biological utilization rate of administration in the duodenum) ([4]; Id versus Iv): 82%
MRT ([4]; Iv): 2.07 h
AUC ([4]; Iv (intravenous)): 226 µg·min/mL
T1/2 (λ) ([4]; Iv, final phase half-life): 1.83 h

Cc1ccccc1CNC(=O)[C@H]1N(C(=O)[C@@H](O)[C@H](Cc2ccccc2)NC(=O)[C@H](CC(N)=O)NC(=O)c2cc(=O)c3ccccc3o2)CSC1(C)C [Example 6, (R)-N-(2-methylbenzyl)-3-{(2S,3S)-3-[N-(2-chromonecarbonyl)-L-asparaginyl]amino-2-hydroxy-4-phenylbutanoyl}-5,5-dimethyl-1,3-thiazolidine-4-carboxamide]
Enzyme activity inhibition rate (%) (addition concentration of 50 nM) [1]: 98.4%
Ki ([5]; reversible tight-binding inhibitor model, test compound 1-100 nM, 15 min at 37° C., pH 5.5, read-out: Enzyme inhibition constant Ki): 0.0017 nM

Cc1ccccc1CNC(=O)[C@H]1N(C(=O)[C@@H](O)[C@H](Cc2ccccc2)NC(=O)[C@H](CC(N)=O)NC(=O)OCc2ccccc2)CSC1(C)C [Example 3, (R)-N-(2-methylbenzyl)-3-{(2S,3S)-3-[N-(benzyloxycarbonyl)-L-asparaginyl]amino-2-hydroxy-4-phenylbutanoyl}-5,5-dimethyl-1,3-thiazolidine-4-carboxamide]
inhibition at 0.05 µM [1]: 100%
Ki [5]: 0.016 nM

Cc1ccccc1CNC(=O)[C@H]1N(C(=O)[C@@H](O)[C@H](Cc2ccccc2)NC(=O)[C@H](CC(N)=O)NC(=O)c2cc3ccccc3o2)CSC1(C)C [Example 7, (R)-N-(2-methylbenzyl)-3-{(2S,3S)-3-[N-(2-benzofurancarbonyl)-L-asparaginyl]amino-2-hydroxy-4-phenylbutanoyl}-5,5-dimethyl-1,3-thiazolidine-4-carboxamide]
inhibition at 0.05 µM [1]: 91.2%
Ki [5]: 0.0048 nM

CC1(C)SCN(C(=O)[C@@H](O)[C@H](Cc2ccccc2)NC(=O)[C@H](CC(N)=O)NC(=O)OCc2ccccc2)[C@@H]1C(=O)NCc1ccccc1 [Example 1, (R)-N-benzyl-3-{(2S,3S)-3-[N-(benzyloxycarbonyl)-L-asparaginyl]amino-2-hydroxy-4-phenylbutanoyl}-5,5-dimethyl-1,3-thiazolidine-4-carboxamide]
inhibition at 0.05 µM [1]: 96%
Ki [5]: 0.019 nM

COCCOC(=O)N[C@H](C(=O)N[C@@H](Cc1ccccc1)[C@H](O)C(=O)N1CSC(C)(C)[C@H]1C(=O)NCc1ccccc1C)C(C)C [Example 30, (R)-N-(2-methylbenzyl)-3-{(2S,3S)-2-hydroxy-3-[(S)-2-(methoxyethoxycarbonyl)amino-3-methylbutanoyl]amino-4-phenylbutanoyl}-5,5-dimethyl-1,3-thiazolidine-4-carboxamide]
inhibition at 0.05 µM [1]: 94.2%

Cc1ccccc1CNC(=O)[C@H]1N(C(=O)[C@@H](O)[C@H](Cc2ccccc2)NC(=O)[C@@H](NC(=O)c2nc3ccccc3s2)C(C)C)CSC1(C)C [Example 14, (R)-N-(2-methylbenzyl)-3-{(2S,3S)-3-[N-(2-benzothiazolecarbonyl)-L-valyl]amino-2-hydroxy-4-phenylbutanoyl}-5,5-dimethyl-1,3-thiazolidine-4-carboxamide]
inhibition at 0.05 µM [1]: 95.8%

CC[C@H](NS(C)(=O)=O)C(=O)N[C@@H](Cc1ccccc1)[C@H](O)C(=O)N1CSC(C)(C)[C@H]1C(=O)NCc1ccccc1C [Example 38, (R)-N-(2-methylbenzyl)-3-{(2S,3S)-2-hydroxy-3-[(S)-2-methanesulfonylaminobutanoyl]amino-4-phenylbutanoyl}-5,5-dimethyl-1,3-thiazolidine-4-carboxamide]
inhibition at 0.05 µM [1]: 76%

Cc1ccccc1CNC(=O)[C@H]1N(C(=O)[C@@H](O)[C@H](Cc2ccccc2)NC(=O)[C@@H](NS(C)(=O)=O)C(C)C)CSC1(C)C [Example 37, (R)-N-(2-methylbenzyl)-3-{(2S,3S)-2-hydroxy-3-[(S)-2-methanesulfonylamino-3-methylbutanoyl]amino-4-phenylbutanoyl}-5,5-dimethyl-1,3-thiazolidine-4-car boxamide]
inhibition at 0.05 µM [1]: 70.1%

CC[C@H](NC(=O)OC)C(=O)N[C@@H](Cc1ccccc1)[C@H](O)C(=O)N1CSC(C)(C)[C@H]1C(=O)NCc1ccccc1C [Example 28, (R)-N-(2-methylbenzyl)-3-{(2S,3S)-2-hydroxy-3-[(S)-2-(methoxycarbonyl)aminobutanoyl]amino-4-phenylbutanoyl}-5,5-dimethyl-1,3-thiazolidine-4-carboxamide]
inhibition at 0.05 µM [1]: 93.6%
Ki [5]: 0.242 nM

(R)-N-(2-methylbenzyl)-3-{(2S,3S)-3-[N-(3-benzylphenoxyacetyl)-L-valyl]amin o-2-hydroxy-4-phenylbutanoyl}-5,5-dimethyl-1,3-thiazolidine-4-carboxamide [Example 17]
Enzyme activity inhibition rate (%) (addition concentration of 50 nM) [1]: 97.1%

Cc1ccccc1CNC(=O)[C@H]1N(C(=O)[C@@H](O)[C@H](Cc2ccccc2)NC(=O)[C@@H](NC(=O)OCc2ccccc2)C(C)C)CSC1(C)C [Example 4, (R)-N-(2-methylbenzyl)-3-{(2S,3S)-3-[N-(benzyloxycarbonyl)-L-valyl]amino-2-hydroxy-4-phenylbutanoyl}-5,5-dimethyl-1,3-thiazolidine-4-carboxamide]
inhibition at 0.05 µM [1]: 95.3%

CC(C)c1nc(CN(C)C(=O)N[C@H](C(=O)N[C@@H](Cc2ccccc2)C[C@H](O)[C@H](Cc2ccccc2)NC(=O)OCc2cncs2)C(C)C)cs1 [Ritonavir, reference compound]
EC50 [2]: 0.033 µg/mL (≈ 0.0458 µM)
Cytotoxicity TC50 [3]: > 1.0 µg/mL

CC(C)(C)NC(=O)[C@H]1N(C(=O)[C@@H](O)[C@H](Cc2ccccc2)NC(=O)[C@H](CC(N)=O)NC(=O)OCc2ccccc2)CSC1(C)C [reference compound]
Ki [5]: 0.212 nM

Cc1ccccc1CNC(=O)[C@H]1N(C(=O)[C@@H](O)[C@H](Cc2ccccc2)NC(=O)[C@@H](NC(=O)c2nc3ccccc3[nH]2)C(C)C)CSC1(C)C [Example 15, (R)-N-(2-methylbenzyl)-3-{(2S,3S)-3-[N-(2-benzimidazolecarbonyl)-L-valyl]amino-2-hydroxy-4-phenylbutanoyl}-5,5-dimethyl-1,3-thiazolidine-4-carboxamide]
inhibition at 0.05 µM [1]: 92.8%

Cc1ccccc1CNC(=O)[C@H]1N(C(=O)[C@@H](O)[C@H](Cc2ccccc2)NC(=O)[C@@H](NC(=O)c2cnc3ccccc3n2)C(C)C)CSC1(C)C [Example 19, (R)-N-(2-methylbenzyl)-3-{(2S,3S)-3-[N-(2-quinoxalinecarbonyl)-L-valyl]amino-2-hydroxy-4-phenylbutanoyl}-5,5-dimethyl-1,3-thiazolidine-4-carboxamide]
inhibition at 0.05 µM [1]: 97.3%
